From PubChem BioAssay AID2060888 (Molecular Pharmacology Branch, DTP, NCI, 2025)

System: 695427-040-R-J1-PDC complex spheroid viability
Experiment: Anticancer human tumor 695427-040-R-J1-PDC patient-derived colon adenocarcinoma cell line growth inhibition [RAS]
Settings: for IC50: curve of first compound; for viability, T/C: stronger effect = lower value; active means viability on the fitted dose curve at most 10% of control; inactive means the rest
In short: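 Tumour cells grown as complex spheroids with HUVEC endothelial cells and mesenchymal stem cells, treated with RAS pathway inhibitor combinations. Each agent spans half-log steps from near clinical Cmax, or 10 microM where Cmax is unknown.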
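Further: viability read after seven days of drug exposure.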
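Wherever viability, T/C is given: 100% = DMSO vehicle control viability.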

O=C(c1ccc(F)c(F)c1Nc1ccc(I)cc1F)N1CC(O)([C@@H]2CCCCN2)C1 + C#Cc1c(F)ccc2cc(O)cc(-c3ncc4c(N5CC6CCC(C5)N6)nc(OCC56CCCN5CC(F)C6)nc4c3F)c12
0.00368 µM: IC50 (second compound 3.16 µM)
< 0.00316 µM: IC50 (second compound 10 µM)
0.0177 µM: IC50 (second compound 1 µM)
inactive: viability, T/C (second compound 0.0316 µM, first compound 0.00316 µM) 93.3% | viability, T/C (second compound 0.0316 µM, first compound 0.01 µM) 77% | viability, T/C (second compound 0.0316 µM, first compound 0.0316 µM) 55.7% | viability, T/C (second compound 0.0316 µM, first compound 0.1 µM) 30.5% | viability, T/C (second compound 0.0316 µM, first compound 0.316 µM) 15.2% | viability, T/C (second compound 0.1 µM, first compound 0.00316 µM) 92.1% | viability, T/C (second compound 0.1 µM, first compound 0.01 µM) 65.7% | viability, T/C (second compound 0.1 µM, first compound 0.0316 µM) 53.8% | viability, T/C (second compound 0.1 µM, first compound 0.1 µM) 30.9% | viability, T/C (second compound 0.1 µM, first compound 0.316 µM) 15.7% | viability, T/C (second compound 0.316 µM, first compound 0.00316 µM) 82.9% | viability, T/C (second compound 0.316 µM, first compound 0.01 µM) 65.5% | viability, T/C (second compound 0.316 µM, first compound 0.0316 µM) 52.6% | viability, T/C (second compound 0.316 µM, first compound 0.1 µM) 29.9% | viability, T/C (second compound 0.316 µM, first compound 0.316 µM) 17% | viability, T/C (second compound 1 µM, first compound 0.00316 µM) 59.1% | viability, T/C (second compound 1 µM, first compound 0.01 µM) 53.4% | viability, T/C (second compound 1 µM, first compound 0.0316 µM) 47% | viability, T/C (second compound 1 µM, first compound 0.1 µM) 23.4% | viability, T/C (second compound 1 µM, first compound 0.316 µM) 12.8% | viability, T/C (second compound 3.16 µM, first compound 0.00316 µM) 52.2% | viability, T/C (second compound 3.16 µM, first compound 0.01 µM) 38.5% | viability, T/C (second compound 3.16 µM, first compound 0.0316 µM) 23.7% | viability, T/C (second compound 3.16 µM, first compound 0.1 µM) 19.6% | viability, T/C (second compound 10 µM, first compound 0.00316 µM) 30.1% | viability, T/C (second compound 10 µM, first compound 0.01 µM) 32.8% | viability, T/C (second compound 10 µM, first compound 0.0316 µM) 22.5% | viability, T/C (second compound 10 µM, first compound 0.1 µM) 11.1%
0.0314 µM: IC50 (second compound 0.316 µM)
active: viability, T/C (second compound 0.0316 µM, first compound 1 µM) 2.92% | viability, T/C (second compound 0.1 µM, first compound 1 µM) 2.78% | viability, T/C (second compound 0.316 µM, first compound 1 µM) 4.73% | viability, T/C (second compound 1 µM, first compound 1 µM) 3.39% | viability, T/C (second compound 3.16 µM, first compound 0.316 µM) 8.05% | viability, T/C (second compound 3.16 µM, first compound 1 µM) 2.3% | viability, T/C (second compound 10 µM, first compound 0.316 µM) 2.72% | viability, T/C (second compound 10 µM, first compound 1 µM) 1.31%
0.0315 µM: IC50 (second compound 0.1 µM)
0.0404 µM: IC50 (second compound 0.0316 µM)
